Data reported in patent publication US11427548B2 (Arvinas Operations, Inc., priority 2015, dated 2022).
Read-outs that look alike come from different tables or passages of the source.

Biological target: T1, Androgen Receptor (Homo sapiens, UniProt P10275)
T1 construct: endogenous in cells; host or cells: VCaP cells
T1 sequence (P10275 1-920): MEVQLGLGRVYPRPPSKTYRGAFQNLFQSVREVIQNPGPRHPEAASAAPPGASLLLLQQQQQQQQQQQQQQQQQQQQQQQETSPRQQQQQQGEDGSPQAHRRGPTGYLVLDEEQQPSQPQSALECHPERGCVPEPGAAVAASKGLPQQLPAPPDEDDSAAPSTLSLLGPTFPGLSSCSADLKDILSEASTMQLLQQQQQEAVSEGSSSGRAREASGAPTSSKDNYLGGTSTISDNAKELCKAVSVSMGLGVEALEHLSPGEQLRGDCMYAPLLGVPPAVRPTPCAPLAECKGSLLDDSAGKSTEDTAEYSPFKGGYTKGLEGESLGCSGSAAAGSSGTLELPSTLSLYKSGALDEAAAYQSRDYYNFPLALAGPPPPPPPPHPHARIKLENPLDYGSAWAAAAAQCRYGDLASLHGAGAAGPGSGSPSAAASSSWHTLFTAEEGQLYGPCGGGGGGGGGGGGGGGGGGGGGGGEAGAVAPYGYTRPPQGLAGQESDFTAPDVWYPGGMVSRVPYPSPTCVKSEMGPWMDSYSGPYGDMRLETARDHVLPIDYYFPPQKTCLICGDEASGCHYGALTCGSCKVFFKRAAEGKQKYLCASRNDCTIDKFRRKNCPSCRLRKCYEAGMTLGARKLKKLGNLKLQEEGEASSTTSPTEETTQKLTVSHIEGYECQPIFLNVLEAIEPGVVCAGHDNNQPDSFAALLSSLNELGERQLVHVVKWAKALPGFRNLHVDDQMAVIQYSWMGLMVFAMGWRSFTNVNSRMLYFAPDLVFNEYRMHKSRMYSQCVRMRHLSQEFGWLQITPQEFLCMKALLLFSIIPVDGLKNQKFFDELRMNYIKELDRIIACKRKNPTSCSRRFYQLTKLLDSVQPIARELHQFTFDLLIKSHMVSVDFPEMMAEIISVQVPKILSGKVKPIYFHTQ
Assay: Androgen Receptor ELISA assay (PathScan AR ELISA) in VCaP cells: AR degradation, Dmax and DC50
Assay type: cell-based
Settings: for DC50: read-out: VCaP DC50; for Dmax: VCaP, read-out: VCaP Dmax (%)
In short: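 After 24 h exposure of VCaP cells (charcoal-stripped serum, 0.1 nM R1881 agonist, 0.1% DMSO) to seven half-log compound concentrations, residual AR in lysates was measured by PathScan ELISA (TMB absorbance, 450 nm). Cells were plated at 30,000/well and grown at least 3 days beforehand.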

Row | Dmax (VCaP cells, Table 36) | Compound | DC50 (VCaP cells, Table 36) | Dmax
1 | < 25% | Cc1ncsc1-c1ccc([C@H](C)NC(=O)[C@@H]2CC(O)CN2C(=O)[C@H](C(C)C)N2Cc3ccc(OCCN4CCN(c5ccc(C(=O)N[C@H]6C(C)(C)[C@H](Oc7ccc(C#N)c(Cl)c7)C6(C)C)cn5)CC4)cc3C2=O)cc1 (stereo partly drawn) [Example 856, N-((1r,3r)-3-(3-chloro-4-cyanophenoxy)-2,2,4,4-tetramethylcyclobutyl)-6-(4-(2-((2-((S)-1-((2S, 4R)-4-hydroxy-2-(((S)-1-(4-(4-methylthiazol-5-yl)phenyl)ethyl)carbamoyl)pyrrolidin-1-yl)-3-methyl-1-oxobutan-2-yl)-3-oxoisoindolin-5-yl)oxy)ethyl)piperazin-1-yl)nicotinamide] | > 501 nM | –
2 | – | CC(=O)O[C@@H]1C[C@@H](C(=O)N[C@@H](C)c2ccc(-c3scnc3C)cc2)N(C(=O)[C@H](C(C)C)N2Cc3ccc(OCCN4CCN(c5ccc(C(=O)N[C@H]6C(C)(C)[C@H](Oc7ccc(C#N)c(Cl)c7)C6(C)C)cn5)CC4)cc3C2=O)C1 [Example 857, (3R,5S)-1-((S)-2-(6-(2-(4-(5-(((1r,3r)-3-(3-chloro-4-cyanophenoxy)-2,2,4,4-tetramethylcyclobutyl)carbamoyl)pyridin-2-yl)piperazin-1-yl)ethoxy)-1-oxoisoindolin-2-yl)-3-methylbutanoyl)-5-(((S)-1-(4-(4-methylthiazol-5-yl)phenyl)ethyl)carbamoyl)pyrrolidin-3-yl acetate] | > 501 nM | < 25%
3 | – | Cc1ncsc1-c1ccc([C@H](C)NC(=O)[C@H]2C[C@H](O)CN2C(=O)[C@@H](NC(=O)CN2C3CCC2CN(CCCCc2ccc(C(=O)N[C@H]4C(C)(C)[C@H](Oc5ccc(C#N)c(Cl)c5)C4(C)C)cc2)C3)C(C)(C)C)cc1 [Example 858, (2R,4S)-1-((2S)-2-(2-(3-(4-(4-(((1r,3r)-3-(3-chloro-4-cyanophenoxy)-2,2,4,4-tetramethylcyclobutyl)carbamoyl)phenyl)butyl)-3,8-diazabicyclo[3.2.1]octan-8-yl)acetamido)-3,3-dimethylbutanoyl)-4-hydroxy-N-((S)-1-(4-(4-methylthiazol-5-yl)phenyl)ethyl) pyrrolidine-2-carboxamide] | > 501 nM | < 25%
4 | > 71% | Cc1ncsc1-c1ccc([C@H](CO)NC(=O)[C@@H]2C[C@@H](O)CN2C(=O)[C@@H](NC(=O)CN2CCN(CCCCc3ccc(C(=O)N[C@H]4C(C)(C)[C@H](Oc5ccc(C#N)c(Cl)c5)C4(C)C)cc3)CC2)C(C)(C)C)cc1 [Example 859, (2S,4R)-1-((S)-2-(2-(4-(4-(4-(((1r,3r)-3-(3-chloro-4-cyanophenoxy)-2,2,4,4-tetramethylcyclobutyl)carbamoyl)phenyl)butyl)piperazin-1-yl)acetamido)-3,3-dimethylbutanoyl)-4-hydroxy-N-((R)-2-hydroxy-1-(4-(4-methylthiazol-5-yl)phenyl)ethyl) pyrrolidine-2-carboxamide] | < 50 nM | –
5 | – | Cc1ncsc1-c1ccc([C@H](C)NC(=O)[C@@H]2C[C@@H](O)CN2C(=O)[C@@H](NC(=O)CN[C@H]2C[C@H](N3CCN(c4ccc(C(=O)N[C@H]5C(C)(C)[C@H](Oc6ccc(C#N)c(Cl)c6)C5(C)C)cn4)CC3)C2)C(C)(C)C)cc1 [Example 860, N-((1r,3R)-3-(3-chloro-4-cyanophenoxy)-2,2,4,4-tetramethylcyclobutyl)-6-(4-((1S,3R)-3-((2-(((S)-1-((2S,4R)-4-hydroxy-2-(((S)-1-(4-(4-methylthiazol-5-yl)phenyl)ethyl)carbamoyl)pyrrolidin-1-yl)-3,3-dimethyl-1-oxobutan-2-yl)amino)-2-oxoethyl)amino)cyclobutyl)piperazin-1-yl)nicotinamide] | < 50 nM | 51 to 70%
